Patent US11345681B1, “Inhibitors of fibroblast growth factor receptor kinases” (Kinnate Biopharma Inc., priority 2020, dated 2022)

target: Wild type FGFR2 (Homo sapiens (Human), UniProt P21802); experiment: FGFR2 kinase assay (fluorescence-based microfluidic mobility shift assay); assay type: biochemical; settings: not given
Sequence (P21802 22-821): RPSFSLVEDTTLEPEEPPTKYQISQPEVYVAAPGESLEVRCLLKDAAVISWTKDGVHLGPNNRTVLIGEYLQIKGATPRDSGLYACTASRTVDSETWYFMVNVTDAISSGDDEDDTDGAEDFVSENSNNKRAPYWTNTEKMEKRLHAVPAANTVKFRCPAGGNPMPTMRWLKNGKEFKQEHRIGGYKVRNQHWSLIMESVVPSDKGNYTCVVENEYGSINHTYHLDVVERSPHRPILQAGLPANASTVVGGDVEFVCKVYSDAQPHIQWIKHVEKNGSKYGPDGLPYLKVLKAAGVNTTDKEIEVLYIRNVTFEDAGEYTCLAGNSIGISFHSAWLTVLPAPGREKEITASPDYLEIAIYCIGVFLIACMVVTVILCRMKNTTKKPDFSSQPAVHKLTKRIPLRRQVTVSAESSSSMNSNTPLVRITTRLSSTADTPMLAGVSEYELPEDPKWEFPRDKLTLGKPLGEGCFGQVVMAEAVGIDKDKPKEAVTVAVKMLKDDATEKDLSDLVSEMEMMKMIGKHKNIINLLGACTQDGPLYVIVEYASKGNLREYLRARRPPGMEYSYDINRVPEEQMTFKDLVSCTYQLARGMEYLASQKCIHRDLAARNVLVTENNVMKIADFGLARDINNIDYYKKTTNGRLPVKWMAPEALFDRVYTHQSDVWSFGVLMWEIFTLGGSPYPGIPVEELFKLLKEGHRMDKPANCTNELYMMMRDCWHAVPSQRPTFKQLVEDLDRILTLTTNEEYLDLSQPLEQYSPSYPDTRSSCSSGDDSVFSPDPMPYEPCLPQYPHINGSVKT

| Structure (SMILES) | IC50 [nM] |
| --- | --- |
| C=CC(=O)N1C[C@@H](n2nc(C#Cc3cc4nccc(C)c4cc3Cl)c(C(N)=O)c2NC)C[C@@H]1COC [Example 281, 3-[2-(6-chloro-4-methylquinolin-7-yl)ethynyl]-1-[(3S,5R)-5-(methoxymethyl)-1-(prop-2-enoyl)pyrrolidin-3-yl]-5-(methylamino)pyrazole-4-carboxamide] | < 100 |

same assay, conditions: wild type FGFR2 0.06 nM, 100 μM ATP, 80 minutes at room temperature; class symbols

| Structure (SMILES) | IC50 [nM] |
| --- | --- |
| C=CC(=O)N1C[C@@H](n2nc(C#Cc3cccc4c3cnn4C3CC3)c(C(N)=O)c2NC)C[C@@H]1COC [Example 276, 3-[2-(1-Cyclopropylindazol-4-yl)ethynyl]-1-[(3S,5R)-5-(methoxymethyl)-1-(prop-2-enoyl)pyrrolidin-3-yl]-5-(methylamino)pyrazole-4-carboxamide] | ≤ 100 |
| C=CC(=O)N1C[C@@H](n2nc(C#Cc3cccn4cncc34)c(C(N)=O)c2NC)C[C@@H]1COC [Example 277, 3-(2-{Imidazo[1,5-a]pyridin-8-yl}ethynyl)-1-[(3S,5R)-5-(methoxymethyl)-1-(prop-2-enoyl)pyrrolidin-3-yl]-5-(methylamino)pyrazole-4-carboxamide] | ≤ 100 |
| C=CC(=O)N1C[C@@H](n2nc(C#Cc3cccc4cncn34)c(C(N)=O)c2NC)C[C@@H]1COC [Example 278, 3-(2-{Imidazo[1,5-a]pyridin-5-yl}ethynyl)-1-[(3S,5R)-5-(methoxymethyl)-1-(prop-2-enoyl)pyrrolidin-3-yl]-5-(methylamino)pyrazole-4-carboxamide] | ≤ 100 |
| C=CC(=O)N1C[C@@H](n2nc(C#Cc3cc4ncc(C5CC5)n4cc3F)c(C(N)=O)c2NC)C[C@@H]1COC [Example 283, 3-(2-{3-Cyclopropyl-6-fluoroimidazo[1,2-a]pyridin-7-yl}ethynyl)-1-[(3S,5R)-5-(methoxymethyl)-1-(prop-2-enoyl)pyrrolidin-3-yl]-5-(methylamino)pyrazole-4-carboxamide] | ≤ 100 |
| C=CC(=O)N1C[C@@H](n2nc(C#Cc3cc(OC)c4c(C5CC5)cnn4c3)c(C(N)=O)c2NC)C[C@@H]1COC [Example 284, 3-(2-{3-Cyclopropyl-4-methoxypyrazolo[1,5-a]pyridin-6-yl}ethynyl)-1-[(3S,5R)-5-(methoxymethyl)-1-(prop-2-enoyl)pyrrolidin-3-yl]-5-(methylamino)pyrazole-4-carboxamide] | 100 to 1000 |
| C=CC(=O)N1C[C@@H](n2nc(C#Cc3cc4nc5n(c4cc3Cl)CCC5)c(C(N)=O)c2NC)C[C@@H]1COC [Example 285, 1-((3S,5R)-1-Acryloyl-5-(methoxymethyl)pyrrolidin-3-yl)-3-((7-chloro-2,3-dihydro-1H-benzo[d]pyrrolo[1,2-a]imidazol-6-yl)ethynyl)-5-(methylamino)-1H-pyrazole-4-carboxamide] | ≤ 100 |
| C=CC(=O)N1C[C@@H](n2nc(C#Cc3c(F)ccc4c3cnn4C3CC3)c(C(N)=O)c2NC)C[C@@H]1COC [Example 287, 1-((3S,5R)-1-Acryloyl-5-(methoxymethyl)pyrrolidin-3-yl)-3-((1-cyclopropyl-5-fluoro-1H-indazol-4-yl)ethynyl)-5-(methylamino)-1H-pyrazole-4-carboxamide] | ≤ 100 |
| C=CC(=O)N1C[C@@H](n2nc(C#Cc3cc4ncc(Cl)n4cc3F)c(C(N)=O)c2NC)C[C@@H]1COC [Example 290, 3-(2-{3-Chloro-6-fluoroimidazo[1,2-a]pyridin-7-yl}ethynyl)-1-[(3S,5R)-5-(methoxymethyl)-1-(prop-2-enoyl)pyrrolidin-3-yl]-5-(methylamino)pyrazole-4-carboxamide] | ≤ 100 |
